In patent publication US9018216B2, “Solid forms of (R)-2-(5-(2-(3-ethylureido)-6-fluoro-7-(tetrahydrofuran-2-yl)-1H-benzo[d]imidazol-5-yl)pyrimidin-2-yl)propan-2-yl dihydrogen phosphate and salts thereof” (priority 2012, dated 2015):
Like-named read-outs stand apart in the source and are kept apart here.

What was measured:
[1] = Stability of the solid forms (net increase in total impurities at 40 C/30% RH); type: physicochemical; settings: 17 days
[2] = system: Enterococcus faecalis ATCC 29212; experiment: Gyrase MIC determination using microdilution broth method (Protocol 1); type: cell-based; settings: Enterococcus faecalis, ATCC29212, Enterococcus faecalis ATCC 29212, with 3% Laked Horse Blood, read-out: MIC
[3] = system: Streptococcus pneumoniae ATCC 10015; experiment: as above; type: cell-based; settings: ATCC10015, Streptococcus pneumoniae ATCC 10015, with 3% Laked Horse Blood
[4] = system: Staphylococcus aureus ATCC 29213; experiment: microbe, parasite or virus in culture; type: cell-based; settings: Staphylococcus aureus, Protocol 1
[5] = system: Enterococcus faecium ATCC 49624; experiment: Gyrase MIC determination using microdilution broth method (Protocol 1); type: cell-based; settings: ATCC49624, Enterococcus faecium ATCC 49624 with 3% Laked Horse Blood, read-out: MIC
[6] = system: Escherichia coli AG100; experiment: Gyrase MIC determination against Gram negatives using microdilution broth method (Protocol 2); type: cell-based; settings: read-out: MIC
Experimental: Compounds of this invention were tested for antimicrobial activity by susceptibility testing in liquid media. […] The specific protocols used were as follows:
Protocol 2: Gyrase MIC Determination of Compounds Against Gram Negatives Using Microdilution Broth Method
Strains (MHII Media for all; Broth and Agar): • 1. Escherichia coli AG100 WT • 2. Escherichia coli AG100 tolC • 3. […] Haemophilus influenzae Rd0894 (AcrA−)
Inoculum Prep: • 1. Using the BBL Prompt kit, picked 5 big or 10 small, well separated colonies from cultures grown on agar medium and inoculated 1 mL sterile saline that came with the kit. • 2. Vortexed the wells for ˜30 s to give a suspension of ˜10^8 cells/mL. Actual density could be confirmed by plating out dilutions of this suspension. • 3. Diluted the suspension 1/100 by transferring 0.15 mL of cells into 15 mL (˜10^6 cells/mL) sterile broth (see below) for each plate of compounds tested, swirled to mix. […] Used 50 μl cells (˜5×10^4 cells) to inoculate each microtiter well containing 50 μl of the drug diluted in broth (see below).
Drug Dilutions, Inoculation, MIC Determination: • 1. […] Diluted drug/compound stocks to 200× desired final concentration in 50 μL DMSO. If starting concentration of MICs was 8 μg/mL final concentration, then required 6.25 μL of stock+43.75 μL DMSO. Each 200× stock was placed in a separate row of column 1 of a new 96 well microtiter plate. • 3. Added 25 μL of DMSO to columns 2-12 of all rows of the microtiter plate containing 200× compound stocks and serially diluted 25 μL from column 1 through column 11, changed tips after each column. i.e. 25 μL compound+25 μL DMSO=2× dilution. Left “no compound” DMSO well at the end of the series for control. • 4. For each strain tested, prepared two microtiter plates with 50 μL of MHII broth using a Matrix pipettor. • 5. Transferred 0.5 μL of each dilution (w/Matrix auto-pipettor) to 50 μL of medium/microtiter well prior to the addition of 50 μl of cells. The usual starting concentration of compound was 8 μg/mL after the 1/200 dilution into medium+cells−compound concentrations decreased in 2× steps across the rows of a microtiter plate. All MICs were done in duplicate. • 6. All wells were inoculated with 50 μl of diluted cell suspension (see above) to a final volume of 100 μl. • 7. After inoculum was added, each well was mixed thoroughly with a manual multichannel pipettor; same tips were used going from low to high concentration of drug in the same microtiter plate. • 8. Plates were incubated at 37° C. for at least 18 hours. • 9.
Examined the test plates after the correct incubation time and read the MIC endpoint at the concentration where a marked reduction occurred in the appearance of growth on the test plate as compared to that of growth on the positive control plates.

SMILES: CCNC(=O)Nc1nc2cc(-c3cnc(C(C)(C)OP(=O)([O-])[O-])nc3)c(F)c([C@H]3CCCO3)c2[nH]1.[Na+].[Na+] [Form X, disodium (R)-2-(5-(2-(3-ethylureido)-6-fluoro-7-(tetrahydrofuran-2-yl)-1H-benzo[d]imidazol-5-yl)pyrimidin-2-yl)propan-2-yl phosphate]
- Net % increase in total impurities [1]: 0.59%
- MIC [2]: 2 µg/mL
- MIC [3]: 0.25 µg/mL
- MIC ([4]; ATCC29213, Staphylococcus aureus ATCC 29213 GyrB T173I): > 16 µg/mL
- MIC ([4]; ATCC29213, Staphylococcus aureus ATCC 29213 with 50% Mouse Serum): 2 µg/mL
- MIC [5]: 4 µg/mL
- MIC ([6]; Escherichia coli AG100 WT): > 16 µg/mL
- MIC ([6]; Escherichia coli, AG100, Escherichia coli AG100 tolC): 2 µg/mL
